In series [1] the target is T1, BAZ2A bromodomain (Homo sapiens, UniProt Q9UIF9).
T1 construct: made in house
T1 sequence (Q9UIF9 1793-1897 limits assumed): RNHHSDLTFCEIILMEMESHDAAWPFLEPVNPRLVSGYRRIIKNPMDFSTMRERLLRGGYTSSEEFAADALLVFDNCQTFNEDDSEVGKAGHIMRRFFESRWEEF
Nature of the series: AlphaScreen competition binding assay (BAZ2A bromodomain binding to acetylated peptide). As to conditions: single dose 100 μM; IC50 not determined; read-out: Residual activity when tested in single dose.

The target of series [2] is T1, BAZ2A bromodomain. In words: Isothermal titration calorimetry (ITC). The class given is binding. As to conditions: 25°C, 0.25% DMSO, racemic mixture, read-out: equilibrium dissociation constant (KD). The method, then: (§1) Trigonal crystals were obtained by co-crystallization as described in the same work. Monoclinic crystals were obtained by co-crystallization with compound 4 of reference; a back-soaking procedure was then applied by incubating the crystal in the crystallization solution without inhibitors for 36-48 hours, and subsequently exposing it to the new ligand of interest for 12-24 hours.
(§2) Diffraction data were collected at the Elettra Synchrotron Light Source (Trieste, Italy), XRD1 and XRD2 beamlines, and at the ESRF (Grenoble, France), ID30-A1 beamline. Data were processed and structures were solved as described elsewhere. BAZ2A/cmp9 data have been corrected for diffraction anisotropy with STARANISO (https://staraniso.globalphasing.org/cgi-bin/staraniso.cgi).
(§3) Data collection and refinement statistics are reported in Suppl. Tables 3-6. Electron densities (2Fo-Fc polder OMIT map) for the bound inhibitors are shown in Suppl. Fig. 7.
(§4) AlphaScreen assay was conducted as detailed in [11]. All experiments were performed at least in […]
(§5) Isothermal Titration Calorimetry
(§6) ITC experiments were performed using an MicroCal PEAQ-IT C microcalorimeter (Malvern Panalytical , UK) at 25°C with a stirring speed of 750 rpm in 20mM Tris pH 7. 8, 0. 2 M NaCl, 0. 2 mM TCEP and 0. 25% DMSO. For each experiment, one 0. […]

In series [3] the target is T1, BAZ2A bromodomain. In words: AlphaScreen competition binding assay (BAZ2A bromodomain binding to acetylated peptide). The settings on record: for IC50: AlphaScreen dose-response; for remaining binding at 500 µM: single dose, compound concentration 500 μM, read-out: % residual BAZ2A activity; for decrease of binding of BAZ2A bromodomain to the acetylated peptide: tested at 500 μM, single dose in duplicate. As for the experimental part:
The 36 selected molecules were tested by AlphaScreen at single doses in duplicate. Six molecules (compounds 8, 9, 11, 14, 18, and 25) decreased binding of BAZ2A bromodomain to the acetylated peptide by at least 50% when tested at 500 μM. […]
AlphaScreen assay was conducted as detailed in [11]. […]

The next series deals with T2, BAZ2B bromodomain (Homo sapiens, UniProt Q9UIF8).
T2 sequence (Q9UIF8 2060-2164 limits assumed): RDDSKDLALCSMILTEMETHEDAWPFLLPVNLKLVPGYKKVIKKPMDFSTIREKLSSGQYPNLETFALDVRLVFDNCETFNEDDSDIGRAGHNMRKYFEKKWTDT
Nature of the series: AlphaScreen competition binding assay on the BAZ2B bromodomain. As to conditions: AlphaScreen dose-response, Figure S6. As for the experimental part: as §1, §2, §3, §4, §5, §6

A further series relates to BAZ2A. Details: method as in PMID 25799074, PMID 25719566. The settings on record: cited from earlier work.

Several values for one entry are separate records, joined by “and”; a condition that tells them apart may be missing. Equal entries are not always repeated.

With `CCc1c(-c2csc(N3CCNCC3C(=O)NC3CCC(C(N)=O)CC3)n2)[nH]c(C)c1C(C)=O` (centres unmarked) [Compound 103], the remaining binding at 100 µM on BAZ2A bromodomain [1] is greater than 50%.
As for `CCc1c(-c2csc(N3CCN(Cc4ccsc4S(N)(=O)=O)CC3)n2)[nH]c(C)c1C(C)=O` [Compound 90], on BAZ2A bromodomain [1], the remaining binding at 100 µM is greater than 50%.
Same read-out and setting: next, `CCc1c(-c2csc(N3CCN(Cc4c[nH]c(=O)[nH]c4=O)CC3)n2)[nH]c(C)c1C(C)=O` [Compound 93]: greater than 50%.
Turning to `CCc1c(-c2csc(N3CCNCC3C(=O)NCCc3ccno3)n2)[nH]c(C)c1C(C)=O` (centres unmarked) [Compound 104], the Kd on BAZ2A bromodomain [2] was 7.1 µM and 7 µM. For the same compound, on BAZ2A bromodomain [3], the “ligand efficiency (LE)” value was found to be 0.24 kcal/mol per heavy atom, the “lipophilic ligand efficiency (LLE)” value is given as 4.0 and the IC50 was 4 ± 0.2 µM. Also, at BAZ2A bromodomain [3] (from AlphaScreen IC50), the “increase in potency with respect to 47” value stood at 8 fold. On BAZ2B bromodomain, the concentration for half-maximal inhibition (IC50) was determined as 33.5 µM.
As to `CCCOc1ccn2c(C(C)=O)cc(-c3ccccc3S(C)(=O)=O)c2c1` [GSK2801], the “affinity for BAZ2A (in words)” value in the series on BAZ2A was “very high nanomolar range”.
For the compound `CC(=O)c1c(C)[nH]c(-c2csc(N3CCNCC3)n2)c1-c1ccnn1C` [Compound 76], the remaining binding at 100 µM at BAZ2A bromodomain [1] is greater than 50%.
For `CCc1c(-c2csc(N3CCNCC3C(=O)NCc3ncoc3C(C)C)n2)[nH]c(C)c1C(C)=O` (centres unmarked) [Compound 101], on BAZ2A bromodomain [1], the remaining binding at 100 µM was greater than 50%.
Consider `CCc1c(-c2csc(N3CCN(CC4CCN(CC)CC4)CC3)n2)[nH]c(C)c1C(C)=O` [Compound 87], for which the IC50 on BAZ2A bromodomain [3] was determined as 46.6 ± 2.5 µM.
As for `CCc1c(-c2csc(N3CCNCC3C(=O)NCC(N)=O)n2)[nH]c(C)c1C(C)=O` (centres unmarked) [Compound 110], on BAZ2A bromodomain [3], the half-maximal inhibitory concentration (IC50) was found to be 22 ± 2.3 µM.
Still for that read-out and setting: next, `Cc1[nH]c(-c2csc(NC(=N)N)n2)c2c1C(=O)CC(C)(C)C2` [Compound 84]: 29.2 ± 0.3 µM; `CCc1c(-c2csc(N3CCN(Cc4n[nH]cc4C)CC3)n2)[nH]c(C)c1C(C)=O` [Compound 92]: 13.1 ± 0.9 µM.
Regarding `CCCNC(=O)c1c(C)[nH]c(-c2csc(N3CCNCC3)n2)c1CC` [Compound 75], the remaining binding at 100 µM at BAZ2A bromodomain [1] was greater than 50%.
Take `Cc1[nH]c(-c2csc(N3CCNCC3)n2)c2c1C(=O)CCC2` [Compound 80]: the half-maximal inhibitory concentration (IC50) at BAZ2A bromodomain [3] is 11.4 ± 0.3 µM.
The same measure, in the same setting: with `CCc1c(-c2csc(N3CCN(Cc4conc4COC)CC3)n2)[nH]c(C)c1C(C)=O` [Compound 96] the figure was 85.1 ± 6.8 µM.
The same measure, in the same setting: next, `CCc1c(-c2csc(CCCN)n2)[nH]c(C)c1C(C)=O` [Compound 44]: 57.9 ± 6 µM.
On BAZ2A bromodomain [3], `CCc1c(-c2csc(N)n2)[nH]c(C)c1C(C)=O` [Compound 43] yielded a 50% inhibitory concentration (IC50) of 76.2 ± 8.6 µM.
The compound `CCc1c(-c2csc(CN3CCNCC3)n2)[nH]c(C)c1C(C)=O` [Compound 61] had an IC50 at BAZ2A bromodomain [3] of 54 ± 0.2 µM.
Same read-out and setting: next, `CCc1c(-c2csc(N3CCN(Cc4ccnn4CC(C)C)CC3)n2)[nH]c(C)c1C(C)=O` [Compound 97]: 49.3 ± 5.7 µM.
On to `NCc1ccc(N2CCNC(=O)C2)cc1` [Compound 14], for which, on BAZ2A bromodomain [3], the 50% inhibitory concentration (IC50) is greater than 200 µM, the remaining binding at 500 µM was found to be 32 ± 4% and the “decrease of binding of BAZ2A bromodomain to the acetylated peptide” value (from here on “decrease of binding of BAZ2A bromodomain”) is “at least 50%”.
As to `Cc1[nH]c(-c2csc(N3CCN(Cc4c[nH]c5ncncc45)CC3)n2)c2c1C(=O)CCC2` [Compound 99], the IC50 at BAZ2A bromodomain [3] was 10.9 ± 0.2 µM.
Same read-out and setting: with `CCc1c(-c2csc(C3CCNC3)n2)[nH]c(C)c1C(C)=O` (centres unmarked) [Compound 53] the figure was 54 ± 0.2 µM.
Turning to `NC1CCN(C(=O)c2ccc(=O)[nH]c2)CC1` [Compound 36], on BAZ2A bromodomain [3], the remaining binding at 500 µM is 71 ± 3%.
Regarding `CCc1c(-c2csc(N3CCN(Cc4cc(S(N)(=O)=O)co4)CC3)n2)[nH]c(C)c1C(C)=O` [Compound 91], the remaining binding at 100 µM at BAZ2A bromodomain [1] was greater than 50%.
In turn, `CCc1c(-c2csc(C3CCN(C(N)=O)C3)n2)[nH]c(C)c1C(C)=O` (centres unmarked) [Compound 56] yielded an IC50 on BAZ2A bromodomain [3] greater than 100 µM.
On the same count and under the same terms, next, `CCc1c(-c2csc(C3CCN(C(C)=O)C3)n2)[nH]c(C)c1C(C)=O` (centres unmarked) [Compound 55]: 114 ± 22.1 µM.
For the compound `CCc1c(-c2csc(N3CCNCC3C(=O)NCC3CC4(CCC4)C3)n2)[nH]c(C)c1C(C)=O` (centres unmarked) [Compound 106], the remaining binding at 100 µM on BAZ2A bromodomain [1] was greater than 50%.
Take `CCc1c(-c2csc(N3CCN(Cc4cnn5c4OCCC5)CC3)n2)[nH]c(C)c1C(C)=O` [Compound 89]: at BAZ2A bromodomain [1], the remaining binding at 100 µM is greater than 50%.
Regarding `CCc1c(-c2csc(N3CCN(Cc4c[nH]c5ncncc45)CC3)n2)[nH]c(C)c1C(C)=O` [Compound 95], the IC50 at BAZ2A bromodomain [3] was determined as 12.9 ± 2 µM.
With `O=S(=O)(NC1CCNC1)c1cccc2cnccc12` (centres unmarked) [Compound 9], at BAZ2A bromodomain [3], the 50% inhibitory concentration (IC50) was greater than 200 µM, the remaining binding at 500 µM was 44 ± 3% and the “decrease of binding of BAZ2A bromodomain” value is listed as “at least 50%”.
Take `CC(=O)c1c(C)[nH]c(-c2csc(N3CCNCC3)n2)c1C1CCCC1` [Compound 78]: the IC50 at BAZ2A bromodomain [3] came out at 40.1 ± 3.4 µM.
Take `CCc1c(-c2csc(N3CCNCC3C(=O)NCCC(F)(F)F)n2)[nH]c(C)c1C(C)=O` (centres unmarked) [Compound 111]: the concentration for half-maximal inhibition (IC50) on BAZ2A bromodomain [3] was determined as 11 ± 0.2 µM.
As to `CCc1c(-c2csc(N3CCNCC3C(=O)NCCc3cc4ccccc4[nH]3)n2)[nH]c(C)c1C(C)=O` (centres unmarked) [Compound 105], on BAZ2A bromodomain [3], the half-inhibitory concentration (IC50) came out at 33.2 ± 0.3 µM.
With `NC(=O)c1cc(OC2CCNCC2)ccn1` [Compound 13], the remaining binding at 500 µM on BAZ2A bromodomain [3] turned out to be 75 ± 2%.
Compound `CCc1c(-c2csc(C3CCCN3C(C)=O)n2)[nH]c(C)c1C(C)=O` (centres unmarked) [Compound 57] came in with an IC50 at BAZ2A bromodomain [3] of 93.2 ± 10.1 µM.
On the same count and under the same terms, with `CCc1c(-c2csc(N3CCNCC3C(=O)NC3(c4ncccc4F)CC3)n2)[nH]c(C)c1C(C)=O` (centres unmarked) [Compound 100] the figure was 36.5 ± 4.1 µM.
For the compound `CCc1c(-c2csc(N3CCN(Cc4cnc(N)nc4)CC3)n2)[nH]c(C)c1C(C)=O` [Compound 94], the remaining binding at 100 µM on BAZ2A bromodomain [1] was greater than 50%.
Turning to `CCc1c(-c2csc(N3CCN(Cc4cc5n(n4)CCC5)CC3)n2)[nH]c(C)c1C(C)=O` [Compound 86], the IC50 at BAZ2A bromodomain [3] is greater than 100 µM.
`Cc1c[nH]nc1CN1CCN(c2nc(-c3[nH]c(C)c4c3CCCC4=O)cs2)CC1` [Compound 98] showed an IC50 on BAZ2A bromodomain [3] of 12.6 ± 1.4 µM.
As to `NC1CCCN(S(=O)(=O)c2cccc3cnccc23)C1` (centres unmarked) [Compound 8], at BAZ2A bromodomain [3], the IC50 was greater than 200 µM, the remaining binding at 500 µM is 49 ± 7% and the “decrease of binding of BAZ2A bromodomain” value is listed as “at least 50%”.
With `CCc1c(-c2csc(N3CCNCC3C(=O)NCC3CC(C)C3)n2)[nH]c(C)c1C(C)=O` (centres unmarked) [Compound 114], at BAZ2A bromodomain [1], the remaining binding at 100 µM was greater than 50%.
On BAZ2A bromodomain [3], `CCc1c(-c2csc(NC3CCNCC3)n2)[nH]c(C)c1C(C)=O` [Compound 62] returned an IC50 of 53.9 ± 0.2 µM.
With `Cn1cc(CCn2cnc(-c3cnn(C)c3)c2-c2ccc(C#N)cc2)cn1` [BAZ2-ICR], the “affinity for BAZ2A (in words)” value in the series on BAZ2A is reported as “very high nanomolar range”.
As for `C/N=C(/NC)NC1CCN(c2cc(OC)cc(OC)c2)CC1` [Compound 11], at BAZ2A bromodomain [3], the IC50 is greater than 200 µM, the remaining binding at 500 µM was 48 ± 5% and the “decrease of binding of BAZ2A bromodomain” value was “at least 50%”.
Compound `CCc1c(-c2csc(N3CCNCC3C(=O)NCC(F)(F)F)n2)[nH]c(C)c1C(C)=O` (centres unmarked) [Compound 107] showed an IC50 on BAZ2A bromodomain [3] of 14.1 ± 0.2 µM.
In the case of `CCc1c(-c2csc(N3CCNCC3C(=O)NCCCCO)n2)[nH]c(C)c1C(C)=O` (centres unmarked) [Compound 109], on BAZ2A bromodomain [3], the IC50 was determined as 31.3 ± 0.7 µM.
`CC(=O)c1c(C)[nH]c(-c2csc(N3CCNCC3)n2)c1CCC(F)(F)F` [Compound 77] yielded an IC50 on BAZ2A bromodomain [3] of 38.9 ± 2 µM.

The values are drawn from paper PMC9465710, “Identification of a BAZ2A-Bromodomain Hit Compound by Fragment Growing” (ACS Medicinal Chemistry Letters, 2022).
